Some results are limits rather than exact numbers.

Data on nine molecules can be found in patent EP4512427A1, “ANTIBODY-DRUG CONJUGATES BASED ON MOLECULAR GLUE DEGRADERS AND USES THEREOF” (Mablink Bioscience, priority 2023, dated 2025).

What all share (assay): In vitro cytotoxicity assay (MTT)
One assay relates to BT-474. Type of assay: cell-based, human. The settings on record: Homo sapiens, BT-474, 144 h, BT-474; 6 days incubation, MTT. How it is done:
(§1) In vitro cytotoxicity of compounds of the disclosure was assessed on several cancerous human cell lines. Cells were plated in 96-well plates at an appropriate density depending on the cell line (between 1000 and 10 000 cells/well in 100µL of appropriate culture media) and incubated at 37°C for 24 hours. Serial dilutions of the tested compound previously dissolved in culture media (50µL) were added, and incubation was carried at 37°C out for 6 days. MTT (5mg/mL in PBS, 20µL, Sigma-Aldrich) was added into the wells, and incubation was continued for 1 to 4 hours at 37°C. Culture media was then carefully removed, and well content was homogeneously dissolved with acidified isopropanol. Absorbance values were measured on a microplate reader using a wavelength of 570 nm (with a reference wavelength of 690 nm). The IC50 concentration values compared to untreated control cells were determined using inhibition dose response curve fitting (GraphPad Prism 9). Exatecan mesylate (cat#HY-13631A) and CR8 (CAS# 294646-77-8; cat#HY-18340) were purchased from MedChemExpress (China).

A further assay has as its system JIMT-1. Type of assay: cell-based, human. The settings on record: Homo sapiens, 144 h, 6 days incubation. As for the experimental part: as §1
Another assay concerns MDA-MB-231. The format is cell-based, human. The settings on record: Homo sapiens, MDA-MB-231, 144 h, 6 days incubation. As for the experimental part: as §1
For a further assay, the system named is MDA-MB-453. The format is cell-based, human. The settings on record: Homo sapiens, MDA-MB-453, 144 h, 6 days incubation. As for the experimental part: as §1
The test system of a further assay is NCI-N87. The format is cell-based, human. The note with it: Homo sapiens, NCI-N87, 144 h, 6 days incubation. As for the experimental part: as §1
A further assay has as its system SKBR-3. The format is cell-based, human. The note with it: Homo sapiens, SK-BR-3, 144 h, 6 days incubation. As for the experimental part: as §1
For the next assay, the system named is BXPC3. The format is cell-based. The settings on record: Homo sapiens, BXPC-3, 144 h, 6 days incubation. How it is done: as §1
The test system of a further assay is HT-29. The format is cell-based. The settings on record: Homo sapiens, 144 h, 6 days incubation. As for the experimental part: as §1
A further assay has as its system MCF-7. The format is cell-based. The note with it: Homo sapiens, MCF7, 144 h, 6 days incubation. As for the experimental part:
as §1

As usually defined, the IC50 is the midpoint of a concentration-inhibition curve. Read a high IC50 as lower potency. Take `NC1CCN(c2nc(NCc3ccc(-c4ccccn4)cc3)n3ncc(Br)c3n2)CC1` [Compound 2559]: the IC50 in the assay with BT-474 is 2.63 nM; in the assay on JIMT-1, 0.41 nM; in the assay on MDA-MB-231 it was 1.35 nM; in the assay with MDA-MB-453 it was 1.52 nM; in the assay with NCI-N87, 1.32 nM; in the assay on SKBR-3, 3.73 nM. Moreover, the results for the half-maximal inhibitory concentration (IC50) in the assay on BXPC3, in the assay with HT-29 and in the assay with MCF-7 were 1.63 nM, 0.21 nM and 12.8 nM, respectively.

For the molecule `CNCCNc1nc(NCc2ccc(-c3ccccn3)cc2)n2ncc(Br)c2n1` [Compound 2586], the 50% inhibitory concentration (IC50) came to 1.73 nM in the assay with BT-474; 1.13 nM in the assay with JIMT-1; 1.44 nM with MDA-MB-231; 2.47 nM in the assay with MDA-MB-453; 3.14 nM in the assay on NCI-N87; 6.59 nM with SKBR-3. Further, the concentration for half-maximal inhibition (IC50) is 2.44 nM in the assay with BXPC3, 0.45 nM in the assay on HT-29 and 33.9 nM with MCF-7.

Turning to `Brc1cnn2c(NCc3ccc(-c4ccccn4)cc3)nc(NC3CCCNC3)nc12` (racemic) [Compound 2606], the IC50 in the assay on BT-474 was determined as 0.92 nM; in the assay with JIMT-1, 0.88 nM; with MDA-MB-231 it was 0.46 nM; with MDA-MB-453 it was 0.64 nM; in the assay with NCI-N87, 0.77 nM; with SKBR-3 it was 1.23 nM. In addition, the concentration for half-maximal inhibition (IC50) in the assay on BXPC3 was found to be 1.16 nM; in the assay with HT-29, 0.13 nM; in the assay with MCF-7 it was 6.88 nM.

With `O[C@H]1CN[C@H](CNc2nc(NCc3ccc(-c4ccccn4)cc3)n3ncc(Br)c3n2)C1` [Compound 2538], the half-inhibitory concentration (IC50) came out at 6.54 nM with BT-474; 5.13 nM with JIMT-1; 8.75 nM with MDA-MB-231; 8.12 nM in the assay on MDA-MB-453; 21.6 nM in the assay on NCI-N87; 39.1 nM with SKBR-3.

For the molecule `Brc1cnn2c(NCc3ccc(-c4ccccn4)cc3)nc(N3CCNCC3)nc12` [Compound 2601], the IC50 with BT-474 was 1.86 nM; in the assay with JIMT-1 it was 0.45 nM; in the assay with MDA-MB-231, 0.86 nM; in the assay with MDA-MB-453 it was 1.92 nM; with NCI-N87, 2.7 nM; in the assay with SKBR-3, 3.61 nM. Besides, the IC50 in the assay on BXPC3 is 1.72 nM; in the assay on HT-29, 0.13 nM; with MCF-7, 15.4 nM.

Turning to `N[C@H]1CC[C@H](Nc2nc(NCc3ccc(-c4ccccn4)cc3)n3ncc(Cl)c3n2)CC1` [Compound 2629], the IC50 amounted to 1.75 nM in the assay with BT-474; 0.11 nM in the assay with JIMT-1; 0.66 nM with MDA-MB-231; 0.77 nM in the assay with MDA-MB-453; 0.94 nM in the assay on NCI-N87; 0.27 nM in the assay with SKBR-3. Further, the figures for the half-inhibitory concentration (IC50) in the assay with BXPC3, in the assay with HT-29 and in the assay with MCF-7 were 1.17 nM, 0.36 nM and 3.91 nM, respectively.

With `N[C@H]1CC[C@H](Nc2nc(Nc3ccc(CN4CCOCC4)cc3)n3ncc(Br)c3n2)CC1` [Compound 2533], the IC50 with BT-474, in the assay with JIMT-1, with MDA-MB-231, with MDA-MB-453, in the assay with NCI-N87 and in the assay on SKBR-3 was > 100 nM each time.

Turning to `N[C@H]1CC[C@H](CNc2nc(NCc3ccc(-c4ccccn4)cc3)n3ncc(Br)c3n2)CC1` [Compound 2635], the IC50 in the assay on BT-474 turned out to be 23.1 nM; in the assay with JIMT-1, 3.52 nM; in the assay on MDA-MB-231 it was 12.9 nM; with MDA-MB-453 it was 17.9 nM; with NCI-N87, 15.9 nM; in the assay with SKBR-3, 0.83 nM. The IC50 was 39.7 nM in the assay with BXPC3, 8.93 nM with HT-29 and > 100 nM with MCF-7.

On to `N[C@H]1CC[C@H](Nc2nc(NCc3ccc(-c4ccccn4)cc3)n3ncc(I)c3n2)CC1` [Compound 2590], for which the IC50 in the assay on BT-474 was found to be 1.33 nM; in the assay on JIMT-1, 0.29 nM; in the assay with MDA-MB-231, 0.74 nM; with MDA-MB-453, 1.76 nM; with NCI-N87, 2.42 nM; in the assay on SKBR-3, 2.55 nM.
